1 compound from publication PMC3561363, “A Novel Retro-Inverso Peptide Inhibitor Reduces Amyloid Deposition, Oxidation and Inflammation and Stimulates Neurogenesis in the APPswe/PS1ΔE9 Mouse Model of Alzheimer’s Disease” (PLoS ONE, 2013) can be followed below.

Where a SMILES comes first, the peptide text is derived from it.

In assay [1] the test system is Aβ42. As to the kind of experiment: Thioflavin T (ThT) assay for Aβ fibrils. Format: biochemical. The protocol: This method was the same as that published previously. Briefly, 60 µl samples of solutions containing Aβ42 (25 µM), ThT (15 µM) and between 0 and 125 µM RI-OR2 or RI-OR2–TAT, in 10 mM phosphate buffered saline (PBS), pH 7.4, were incubated in sealed, black, clear-bottomed 384-well plates (Corning). ThT fluorescence was monitored every 10 mins (λex = 442 nm, λem = 483 nm) for 48 h at 30°C in a Biotek Synergy 2 plate reader.

Assay [2] deals with Aβ42. The experiment in a line: Immunoassay for Aβ oligomers (in vitro), 6E10/biotinylated 6E10 sandwich. It counts as biochemical. Conditions: 2∶1 and 1∶1 molar ratios of inhibitor:Aβ42; 12.5 µM Aβ42, PBS pH 7.4, 25°C, even at earliest time points 4 and 8 h. On the procedure: This is a more sensitive test than the ThT assay for the detection of early oligomeric forms of Aβ [16]. Microtitre plates (96-well, Maxisorb) were coated with 6E10, diluted 1∶1000 in 10 mM PBS, pH 7.4, for overnight at 4°C. The plates were blocked with assay buffer (Tris-buffered saline (TBS) (pH 7.4), containing 0.05% γ-globulins and 0.005% Tween 20) plus 5% gelatine for 1 h at 37°C. Samples of peptide (12.5 µM Aβ42 and 0, 3.125, 6.25, 12.5, 25 or 62.5 µM RI-OR2–TAT in 10 mM PBS, pH 7.4) were incubated at 25°C for 0, 4, 8, 24 or 48 h, diluted to 1 µM Aβ, and plated in triplicate. The plates were incubated for 1 h at 37°C and then washed with PBS plus 0.05% Tween-20 (PBST). A 1∶1,000 dilution of biotinylated 6E10 was then added to each well, left for 1 h at 37°C, and the plates were washed with PBST. Europium-linked streptavidin was then added to the wells at 1∶500 dilution in StrepE buffer (TBS containing 20 µM DTPA, 0.5% bovine serum albumin, and 0.05% γ-globulins), incubated for 1 h, and washed as before. Enhancer solution was added and the plates were read on a Wallac Victor 2 plate reader, using the time-resolved fluorescence setting for europium.

For assay [3], the system named is Aβ42. The experiment in a line: Atomic force microscopy (AFM) of Aβ42 aggregation. It counts as biochemical. The following applies: 1∶2 molar ratio RI-OR2-TAT:Aβ42 (12.5 µM:25 µM), 24 h, PBS pH 7.4. The protocol:
Aβ42 was incubated at 25 µM in the presence or absence of 12.5 µM RI-OR2-TAT in PBS, pH 7.4, for 24 h. Samples were diluted 1∶10 in PBS and then a 2 µl aliquot was deposited onto the surface of freshly cleaned mica and allowed to dry. Images were obtained in tapping mode using a Multimode™ SPM NanoScope IIIa microscope (Digital Instruments, New York, USA). Silicon cantilever tips measuring 125 µm long, 30 µm wide and with a tip radius <10 nm were used (Budget Sensors, Bulgaria). The resonance frequency was 300 kHz and force constants 40 N/m. All images were first order flattened and edited using WSxM 5.0 Develop 4.3 software, (Nanotech, Madrid, Spain).

Assay [4] relates to β-amyloid plaques in APP/PS1 mouse cortex. As to the kind of experiment: Amyloid plaque load, β-amyloid immunostaining, cortex. It counts as in vivo. Conditions: 100 nmol/kg i.p. once daily, 21 days, 10 months old APP/PS1 mice, vs saline, p<0.0001, N = 4 per group. On the procedure:
APPswe/PS1ΔE9 mice with a C57Bl/6 background (APP/PS1 mice) were obtained from the Jackson lab (http://research.jax.org/repository/alzheimers.html). […] To look at the effects of RI-OR2-TAT on mouse brain pathology (experiment 2), 8 female 10-months-old APP/PS1 mice were used. The animals were housed in single cages in a temperature controlled holding room (21.5°C±1) with 12∶12 h light and dark cycle. Food and water was available ad libitum.
For experiment 2, 4 animals were injected intraperitonially (i.p.) with 0.9% NaCl (vehicle control) and the other 4 with RI-OR2-TAT (100 nmol/kg in 0.9% NaCl) once daily, for 21 days. […]
For experiment 2 (effects on brain pathology), sections were examined for activated microglia (using anti-Iba-1 antibody), oxidative stress (anti-8-oxo-guanine antibody), immature neurons (anti-doublecourtin antibody) or total plaque load (anti-Aβ antibody). […] Oxidative stress was assessed by denaturing DNA in each section using 2N HCl and the sections were then stained for 8-oxo guanine (1∶200 dilution, MAB3560, Millipore). Young immature neurons were detected by immunostaining for doublecortin (1∶200 dilution, sc-66911, Santa Cruz Biotechnology). Total plaque load was quantified by immunostaining for β-amyloid (1∶200 dilution, Invitrogen, 71–5800).
All sections were visualized using an Axio Scope 1 fluorescence microscope (Zeiss, Germany). […]

The subject of assay [5] is SHSY-5Y neuroblastoma cells exposed to pre-aggregated Aβ42. The experiment in a line: Protection against Aβ42 toxicity, LDH assay. It counts as cell-based. Conditions: 0.5, 1, 5 or 10 µM inhibitor, 5 µM pre-aggregated Aβ42, 24 h, Optimem. The protocol:
For cell toxicity assays, SHSY-5Y neuroblastoma cells were maintained in 10% Fetal Calf Serum supplemented Dulbecco’s Modified Eagle Medium (DMEM, Gibco) under standard mammalian cell culture conditions. The cells were transferred to sterile 96-well growth plates at 20,000 cells/well and 4 wells per condition. To test for any toxic effects of RI-OR2–TAT alone on the cells, they were left to adhere for 24 h before the addition of the inhibitor (at 12.5, 25, 50, 100 and 200 µM), in DMEM. To assess the ability of RI-OR2–TAT to protect against Aβ toxicity, the cell growth medium was changed to Optimem (Invitrogen) and Aβ42, pre-aggregated (at 100 µM) for 24 h at 25°C in PBS, was added to the cells at a concentration of 5 µM, together with various amounts (0, 0.1, 0.5, 1, 5 or 10 µM) of RI-OR2–TAT. In each case, after a further 24 h incubation period, the viability of the cells was assessed using a CytoTox 96® Non-Radioactive Cytotoxicity Assay (LDH) Assay (Promega) kit.

Turning to `CC(=O)N[C@H](CCCNC(=N)N)C(=O)NCC(=O)N[C@H](Cc1ccccc1)C(=O)N[C@H](Cc1ccccc1)C(=O)N[C@@H](C(=O)N[C@H](CC(C)C)C(=O)N[C@H](CCCCN)C(=O)NCC(=O)N[C@H](CCCNC(=N)N)C(=O)N[C@H](CCCNC(=N)N)C(=O)N[C@H](CCCNC(=N)N)C(=O)N[C@H](CCCNC(=N)N)C(=O)N[C@H](CCC(N)=O)C(=O)N[C@H](CCCNC(=N)N)C(=O)N[C@H](CCCNC(=N)N)C(=O)N[C@H](CCCCN)C(=O)N[C@H](CCCCN)C(=O)N[C@H](CCCNC(=N)N)C(=O)NCC(=O)N[C@H](Cc1ccc(O)cc1)C(N)=O)C(C)C` [RI-OR2-TAT, Ac-rGffvlkGrrrrqrrkkrGy-NH2] (HELM PEPTIDE1{[ac].[dR].G.[dF].[dF].[dV].[dL].[dK].G.[dR].[dR].[dR].[dR].[dQ].[dR].[dR].[dK].[dK].[dR].G.[dY].[am]}$$$$V2.0), the “ThT inhibition compared with RI-OR2” value in the assay on Aβ42 [1] (48 h, 25 µM Aβ42, PBS pH 7.4, same molar ratios) is given as “slightly better inhibitor than RI-OR2”. Further, in the assay on Aβ42 [1] (48 h, 30°C, 25 µM Aβ42, 15 µM ThT, 10 mM PBS pH 7.4, molar ratios 1∶1, 1∶2, 1∶4 and 1∶10 (inhibitor:Aβ42)), the “ThT fluorescence after incubation of Aβ42 with inhibitor” value was “lower fluorescence”. The “inhibition of Aβ42 aggregation (Fig. 1)” value in the assay on Aβ42 [1] (ThT, 25 µM Aβ42, 48 h, figure title) is on record as “inhibit the aggregation of Aβ42”. The “development of immunoassay signal (oligomer formation)” value in the assay with Aβ42 [2] is “considerably reduced the development of an immunoassay signal”. The “inhibition of oligomer formation by AFM” value with Aβ42 [3] is reported as “clear inhibition of oligomer formation”. The “reduction of amyloid plaque load” value in assay [4] was 32%. Further, the “protection against toxic effects of pre-aggregated Aβ42” value in assay [5] is “protected against the toxic effects”.
